Tested on: C57Bl/6 mice
Test: Turpentine-induced anemia in mice on low iron chow; complete blood counts
Type: in vivo
Protocol: C57Bl/6 mice (7-8-week-old, female) were purchased from Charles River Laboratories, Wilmington, Mass., and placed on low iron chow (Test Diet #AIN-76A 5TJK) two weeks prior to beginning study. Mice were continued on this diet through the course of the study. Mice were injected subcutaneously in the intrascapular region of the back of the recipient mouse with sterile filtered turpentine (Aldrich, cat #24245), or sterile saline in a 100 ul volume every week for three weeks. Therapeutic agents were orally administered at a total volume of 10 mL/kg body weight. Mice were administered vehicle (0.5% DMAC: […]) or compound (n=10 per dose group) starting shortly after the first turpentine injection (day 0), and continuing every day until the study termination. Blood was collected via by orbital sinus once weekly, and complete blood counts (CBCs) were determined by hematology instrumentation (Abaxis, model HM5). Statistical analyses were performed using Graphpad Prism software. Mice were handled according to Incyte IACUC protocols.
Together these experiments indicate that ALK2 inhibition can reverse the decreases in RBC counts, hemoglobin, and hematocrit brought on by turpentine generated, inflammation induced anemia, and this anti-anemia efficacy from ALK2 inhibition is possible in the presence of ruxolitinib.

[1] = 30 mg/kg BID, day 21 post first turpentine injection, FIG. 2, change statistically significant by unpaired t-test
[2] = 100 mg/kg QD, 28 days post first turpentine injection, FIG. 1
[3] = mice also dosed with ruxolitinib (90 mg/kg BID), FIG. 2 (Compound A 30 mg/kg BID)

Question: With `N#CC[C@H](C1CCCC1)n1cc(-c2ncnc3[nH]ccc23)cn1` [ruxolitinib, (R)-3-(4-(7H-pyrrolo[2,3-d]pyrimidin-4-yl)-1H-pyrazol-1-yl)-3-cyclopentylpropanenitrile, reference compound] as the molecule, how does the “anemias brought on by turpentine injection” value (90 mg/kg BID, oral, in each experiment) read?
Answer: exacerbated the anemias

Question: For `Nc1ncc(-c2ccc([C@@]34C[C@@H]3CN(C3CCOCC3)C4)cc2)cc1C(=O)NC12CCC(O)(CC1)CC2` [Compound A, 2-amino-N-(4-hydroxybicyclo-[2.2.2]octan-1-yl)-5-(4-((1R,5S)-3-(tetrahydro-2H-pyran-4-yl)-3-azabicyclo-[3.1.0]hexan-1-yl)phenyl)nicotinamide], which hematocrit [1] is on record?
Answer: the same trend was demonstrated

Question: And the hemoglobin [1]?
Answer: the same trend was demonstrated

Question: And the “red blood cell count” value [1]?
Answer: the same trend was demonstrated

Question: And the hematocrit [2]?
Answer: levels similar to saline (non-turpentine induced anemia) control

Question: What about the hemoglobin [2] of the same molecule?
Answer: levels similar to saline (non-turpentine induced anemia) control

Question: What about the “red blood cell count” value [2] of the same molecule?
Answer: levels similar to saline (non-turpentine induced anemia) control

Question: What about the “anemia brought on by turpentine” value (100 mg/kg QD, oral, daily from day 0, turpentine s.c. weekly for three weeks) of the same molecule?
Answer: corrected the anemia brought on by turpentine

Question: What about the RBC [3] of the same molecule?
Answer: significant increases

Question: What about the hematocrit levels [3] of the same molecule?
Answer: significant increases

Question: And the hemoglobin [3]?
Answer: significant increases

Reference: patent US11738026B2, “Combination therapy comprising an ALK2 inhibitor and a JAK2 inhibitor” (INCYTE CORPORATION, priority 2019, dated 2023)
